Values quoted from earlier work, collected in US10208063B2, “ACC inhibitors and uses thereof” (Gilead Apollo, LLC, priority 2013, dated 2019).

How the values were obtained:
ACC1 = ACC1 isolated from rat, mouse, monkey and human
ACC2 = ACC2 isolated from rat, mouse, monkey and human
pyruvate carboxylase = molecular target: T1, pyruvate carboxylase (Homo sapiens, UniProt P11498)
T1 sequence (P11498 21-1178): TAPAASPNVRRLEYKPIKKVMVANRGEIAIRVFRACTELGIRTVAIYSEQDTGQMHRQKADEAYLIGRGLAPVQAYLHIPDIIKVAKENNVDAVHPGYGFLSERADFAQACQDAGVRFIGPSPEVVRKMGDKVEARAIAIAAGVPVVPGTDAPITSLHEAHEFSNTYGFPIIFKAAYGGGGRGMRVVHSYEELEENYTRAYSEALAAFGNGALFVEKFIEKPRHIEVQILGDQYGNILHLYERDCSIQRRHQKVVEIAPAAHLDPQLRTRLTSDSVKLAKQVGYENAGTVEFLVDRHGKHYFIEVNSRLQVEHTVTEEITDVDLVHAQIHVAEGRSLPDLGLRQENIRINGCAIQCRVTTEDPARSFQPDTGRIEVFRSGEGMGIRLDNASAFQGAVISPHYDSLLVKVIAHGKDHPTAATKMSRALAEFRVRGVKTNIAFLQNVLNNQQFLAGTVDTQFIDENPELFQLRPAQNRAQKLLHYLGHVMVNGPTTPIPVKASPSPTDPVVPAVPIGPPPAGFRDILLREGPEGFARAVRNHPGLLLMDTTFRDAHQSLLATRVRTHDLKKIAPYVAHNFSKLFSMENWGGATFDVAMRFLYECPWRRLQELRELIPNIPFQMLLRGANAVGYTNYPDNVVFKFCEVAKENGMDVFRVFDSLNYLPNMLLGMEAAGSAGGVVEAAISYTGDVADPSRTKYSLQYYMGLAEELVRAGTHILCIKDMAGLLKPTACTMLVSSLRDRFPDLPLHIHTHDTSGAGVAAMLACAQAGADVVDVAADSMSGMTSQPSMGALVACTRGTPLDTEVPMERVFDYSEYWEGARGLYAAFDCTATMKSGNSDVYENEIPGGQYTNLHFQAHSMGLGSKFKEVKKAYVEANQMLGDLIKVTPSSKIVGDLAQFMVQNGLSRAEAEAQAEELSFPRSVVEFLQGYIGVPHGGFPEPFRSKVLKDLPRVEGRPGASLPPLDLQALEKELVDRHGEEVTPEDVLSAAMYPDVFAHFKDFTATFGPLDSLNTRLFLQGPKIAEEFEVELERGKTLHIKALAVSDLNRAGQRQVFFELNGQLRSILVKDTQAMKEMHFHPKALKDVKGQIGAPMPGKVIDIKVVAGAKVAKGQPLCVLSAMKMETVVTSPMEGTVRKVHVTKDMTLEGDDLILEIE

[1] = molecular target: T2, propionyl-CoA carboxylase (Homo sapiens, UniProt P05165+P05166)
T2 sequence (P05165 53-728): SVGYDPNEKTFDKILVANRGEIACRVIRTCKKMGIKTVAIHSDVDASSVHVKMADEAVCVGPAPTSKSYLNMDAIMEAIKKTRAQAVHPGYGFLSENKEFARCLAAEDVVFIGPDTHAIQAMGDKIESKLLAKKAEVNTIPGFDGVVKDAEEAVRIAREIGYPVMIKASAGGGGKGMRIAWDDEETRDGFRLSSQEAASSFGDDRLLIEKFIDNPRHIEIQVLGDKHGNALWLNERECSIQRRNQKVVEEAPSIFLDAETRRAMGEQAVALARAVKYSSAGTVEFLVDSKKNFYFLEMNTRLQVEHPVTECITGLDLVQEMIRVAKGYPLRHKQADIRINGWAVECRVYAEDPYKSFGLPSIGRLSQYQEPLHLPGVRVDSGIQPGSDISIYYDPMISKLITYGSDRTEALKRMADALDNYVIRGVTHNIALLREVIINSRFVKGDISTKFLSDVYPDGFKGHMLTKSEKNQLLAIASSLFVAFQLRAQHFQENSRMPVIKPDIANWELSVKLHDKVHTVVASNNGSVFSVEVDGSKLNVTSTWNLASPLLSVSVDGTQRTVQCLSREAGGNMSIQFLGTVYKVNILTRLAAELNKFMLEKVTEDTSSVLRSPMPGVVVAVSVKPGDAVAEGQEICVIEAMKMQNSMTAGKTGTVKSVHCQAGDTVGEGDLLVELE
T2 sequence (P05166 29-539): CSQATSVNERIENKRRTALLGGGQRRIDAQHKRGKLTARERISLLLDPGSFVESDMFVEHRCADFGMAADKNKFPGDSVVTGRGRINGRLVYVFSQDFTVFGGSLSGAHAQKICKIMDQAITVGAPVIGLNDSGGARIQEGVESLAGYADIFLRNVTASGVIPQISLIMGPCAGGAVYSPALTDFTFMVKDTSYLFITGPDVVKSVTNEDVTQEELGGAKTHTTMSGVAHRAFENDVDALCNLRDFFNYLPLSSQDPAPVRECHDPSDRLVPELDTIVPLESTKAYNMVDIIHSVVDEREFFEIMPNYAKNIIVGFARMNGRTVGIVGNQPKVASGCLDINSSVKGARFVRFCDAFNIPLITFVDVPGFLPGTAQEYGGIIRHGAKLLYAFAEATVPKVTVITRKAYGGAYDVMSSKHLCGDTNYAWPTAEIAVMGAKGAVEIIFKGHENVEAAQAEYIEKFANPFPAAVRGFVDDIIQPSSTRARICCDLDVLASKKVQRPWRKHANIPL

[2] = sucrose-fed rats, three weeks
[3] = tested on: insulin-resistant rat muscle tissue; conditions: within 30 min of compound administration
[4] = rats, acute (46 min) treatment

O=C(c1c2ccccc2cc2ccccc12)N1CCC(N2CCC[C@@H](C(=O)N3CCOCC3)C2)CC1 [CP-640186]
IC50 (ACC1): ~60 nM | IC50 (ACC2): ~60 nM | inhibition of pyruvate carboxylase (pyruvate carboxylase): without inhibiting | inhibition of propionyl-CoA carboxylase [1]: without inhibiting | CPT-I activity (Hep-G2 cells): increased | FA synthesis (Hep-G2 cells): reduced | apoA1 secretion (Hep-G2 cells): without affecting | apoB secretion (Hep-G2 cells): reduced | cholesterol synthesis (Hep-G2 cells): without affecting | triglyceride synthesis and secretion (Hep-G2 cells): reduced | FA oxidation (C2C12 cells): stimulated | FA oxidation (rat muscle slices): stimulated | liver and adipose tissue FA synthesis (experimental animals): reduced | whole body FA oxidation (experimental animals): increased | malonyl-CoA concentration (lipogenic and oxidative tissues, fed and fasted state): acutely reduced | insulin sensitivity [2]: improved | leptin levels [2]: reduced | liver, muscle and adipose triglycerides [2]: time- and dose-dependently reduced | body weight ([2]; selective fat reduction without reducing lean body mass): reduced | hyperinsulinemia produced by the high sucrose diet ([2]; without changing plasma glucose levels): reduced | insulin sensitivity [3]: stimulation | FA clearance [4]: stimulated | glucose clearance [4]: without decreasing

CO[C@H]1CCCC[C@@H](c2ccccc2)OC(=O)[C@@H](C)[C@@]2(O)O[C@H]([C@@H](C)[C@H](O)[C@H]2OC)[C@@H](C)/C=C/[C@H]1OC [soraphen A]
lipogenesis (liposarcoma): inhibited | tumor cell growth (liposarcoma): inhibited
